Measurements reported in patent US20250152591A1, “TREATMENT OF HEMATOLOGICAL MALIGNANCIES WITH MENIN INHIBITORS AND P-GLYCOPROTEIN INHIBITORS” (Kura Oncology, Inc., priority 2022, published 2025).
Where two headings read alike, the source gives them in different places.

Legend:
MV4;11-PGP cell line = test: CellTiter-Glo cell viability assay, MV4;11-PGP; assay type: cell-based; set-up: unit of the concentration uncertain; settings: second set of experiments
Method: (§1) The influence of efflux pumps on the antitumor activity of the test compounds at steady state (more clinically relevant) were evaluated using P-gp-transfected AML cells (MV4;11 cells) in 6-day viability assays.
(§2) A P-gp-expressing KMT2A(MLL)-rearranged cell line model was developed by lentiviral transduction of the MV4;11 parental cell line and then selection for either Luciferase ORF (MV4;11-Control) or P-gp ORF (MV4;11-PGP).
(§3) […] Cell viability was measured by CellTiter-Glo® Luminescent Cell Viability Assay (CTG assay, Promega Corp.) and % Viability was quantified by normalizing to the luminescence values of DMSO-only treated cells. The dose-response curves and IC50's were calculated using GraphPad Prism 9.4.1.
(§4) The measured luminescence in the live cells of the MV4;11-Control and MV4;11-PGP cells that were treated with Compound I only (+DMSO), Compound I+posaconazole […], and valspodar (1 mM) are shown in FIGS. 5A and 5B.
(§5) In a second set of experiments, MV4;11-Control and MV4;11-PGP cell lines were treated as described above with five menin inhibitors, including Compound I, SNDX-5613, Compound A, Compound B, and Compound C, at concentrations ranging from 0 to 1000 nM. All tested compounds dropped in potency due to the P-gp expression as shown in FIGS. 6A-6J and in Tables 5 and 6 (indicated by increased IC50 values between “MV4;11-Control (Compound+DMSO)” and “MV4;11-PGP (Compound+DMSO)” entries).

OCI-AML3-PGP cell line = test: Cell viability assay, OCI-AML3-PGP; assay type: cell-based; set-up: unit of the concentration uncertain; settings: 168 h, 7 days
Method: (§6) A third set of experiments was conducted in the cell line OCI-AML3, which carries the W288Cfs*12 mutation in NPM protein. The P-gp expressing OCI-AML3 cell line (OCI-AML3-PGP) and the Luciferase expressing OC-AML3 cell line (OCI-AML3-Control) were established by lentivirally transducing P-gp ORF or Luciferase ORF. Cells were treated with Compound I or SNDX-5613 for 7 days to assess the IC50 values.

MOLM13-PGP cell line = test: Cell viability assay, MOLM13-PGP; assay type: cell-based; set-up: unit of the concentration uncertain; settings: 168 h, 7 days
Method: (§7) The effects described above were investigated in an AML cell line, MOLM-13, which carries a KA4T2A (MLL)-rearrangement mutation. The P-gp expressing MOLM-13 cell line (MOLM13-PGP) and the Luciferase expressing MOLM-13 cell line (MOLM13-Control) were established by lentivirally transducing P-gp ORF or Luciferase ORF. Cells were plated and treated with test compound for 7 days.

MV4;11-Control cell line = test: CellTiter-Glo cell viability assay, MV4;11-Control; assay type: cell-based; set-up: unit of the concentration uncertain; settings: second set of experiments
Method: as §1, §2, §3, §4, §5

MOLM13-Control cell line = test: Cell viability assay, MOLM13-Control; assay type: cell-based; set-up: unit of the concentration uncertain; settings: 168 h, 7 days
Method: as §7

[1] = test system: OCI-AML3-Control cell line; test: Cell viability assay, OCI-AML3-Control; assay type: cell-based; set-up: unit of the concentration uncertain; settings: 168 h, 7 days
Method: as §6

P-gp [2] = biological target: T1, P-gp (Homo sapiens, UniProt P08183); test: P-gp substrate assessment using MDR1-MDCK monolayers (Example 1, +/- valspodar); assay type: in vitro ADME; set-up: expressed in transfected cells; host or cells: MDR1-MDCK cells; settings: 12-well plates, QC of MDR1-MDCK cell batch
T1 sequence (P08183 whole entry): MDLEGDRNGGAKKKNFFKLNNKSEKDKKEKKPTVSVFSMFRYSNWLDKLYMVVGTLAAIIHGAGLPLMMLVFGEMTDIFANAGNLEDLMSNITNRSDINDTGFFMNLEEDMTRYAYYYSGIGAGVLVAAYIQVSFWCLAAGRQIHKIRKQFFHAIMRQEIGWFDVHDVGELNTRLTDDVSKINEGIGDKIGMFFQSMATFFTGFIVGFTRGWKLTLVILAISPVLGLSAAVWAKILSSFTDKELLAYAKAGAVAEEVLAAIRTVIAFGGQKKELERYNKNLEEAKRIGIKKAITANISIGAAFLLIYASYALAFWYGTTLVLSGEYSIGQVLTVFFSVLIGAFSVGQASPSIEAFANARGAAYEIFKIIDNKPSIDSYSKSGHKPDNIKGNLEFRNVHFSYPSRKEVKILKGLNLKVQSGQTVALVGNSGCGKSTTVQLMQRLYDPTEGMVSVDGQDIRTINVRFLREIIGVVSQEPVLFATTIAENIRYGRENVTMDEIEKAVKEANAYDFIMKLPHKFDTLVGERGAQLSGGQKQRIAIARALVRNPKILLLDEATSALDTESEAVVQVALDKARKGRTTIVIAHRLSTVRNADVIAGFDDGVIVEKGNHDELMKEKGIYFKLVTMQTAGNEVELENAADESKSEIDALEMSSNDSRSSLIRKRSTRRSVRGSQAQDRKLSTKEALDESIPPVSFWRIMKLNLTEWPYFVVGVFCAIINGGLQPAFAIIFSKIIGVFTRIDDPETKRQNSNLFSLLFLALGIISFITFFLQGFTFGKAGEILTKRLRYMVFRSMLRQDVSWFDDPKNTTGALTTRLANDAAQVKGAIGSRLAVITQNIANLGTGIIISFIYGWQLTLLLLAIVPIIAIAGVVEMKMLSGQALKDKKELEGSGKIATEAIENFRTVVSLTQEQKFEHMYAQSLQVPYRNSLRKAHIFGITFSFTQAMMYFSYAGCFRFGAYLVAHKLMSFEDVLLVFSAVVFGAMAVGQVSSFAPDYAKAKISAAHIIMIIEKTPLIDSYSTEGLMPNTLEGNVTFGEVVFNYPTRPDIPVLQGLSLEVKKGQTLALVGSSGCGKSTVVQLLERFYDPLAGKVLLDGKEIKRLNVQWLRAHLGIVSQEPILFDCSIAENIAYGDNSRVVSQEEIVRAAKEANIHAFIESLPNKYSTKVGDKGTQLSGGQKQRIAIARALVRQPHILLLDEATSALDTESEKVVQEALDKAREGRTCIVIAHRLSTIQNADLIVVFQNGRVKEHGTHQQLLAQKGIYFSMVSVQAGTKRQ
Method: MDR1-MDCK cell monolayers were grown to confluence on collagen-coated, microporous membranes in 12-well assay plates. Details of the plates and their certification are shown below. The permeability assay buffer was Hanks' balanced salt solution (HBSS) containing 10 mM HEPES and 15 mM glucose at a pH of 7.4. The buffer in the receiver chamber also contained 1% bovine serum albumin. The dosing solution concentration was 5 μM of test article in the assay buffer+/−1 μM valspodar. Cells were first pre-incubated for 30 min with HBSS containing+/−1 μM valspodar. Cell monolayers were dosed on the apical side (A-to-B) or basolateral side (B-to-A) and incubated at 37° C. with 5% CO2 in a humidified incubator. Samples were taken from the donor and receiver chambers at 120 min. Each determination was performed in duplicate. The flux of lucifer yellow was also measured post-experimentally for each monolayer to ensure no damage was inflicted to the cell monolayers during the flux period. All samples were assayed by LC-MS/MS using electrospray ionization. Liquid chromatography conditions are summarized as follows: Column: Thermo BDS Hypersil C18 30×2.1 mm, […], with guard column; M.P. Buffer: 25 mM ammonium formate buffer, pH 3.5; Aqueous Reservoir (A): 90% water, 10% buffer; Organic Reservoir (B): 90% acetonitrile, 10% buffer; Flow Rate: 350 μL/minute; Total run time: 3.5 min; Autosampler: 10 μL injection volume; Autosampler wash: water/methanol/2-propanol: 1/1/1; with 0.2% formic acid.
The apparent permeability (Papp) and percent recovery were calculated as follows: […]
where, • dCr/dt is the slope of the cumulative concentration in the receiver compartment versus time in μM s^−1; • Vr is the volume of the receiver compartment in cm^3; • Vd is the volume of the donor compartment in cm^3; • A is the area of the insert (1.13 cm^2 for 12-well); • CA is the average of the nominal dosing concentration and the measured 120 minute donor concentration in μM; • CN is the nominal concentration of the dosing solution in μM; • Cr^final is the cumulative receiver concentration in μM at the end of the incubation period; • Cd^final is the concentration of the donor in μM at the end of the incubation period.
Efflux ratio (ER) is defined as Papp (B-to-A)/Papp (A-to-B).
• ER≥2.0 without valspodar, and reduced by ≥50% with valspodar: Positive • ER≥2.0 without valspodar, and reduced by <50% with valspodar: Negative • ER<2.0 without and with valspodar: Negative

P-gp [3] = biological target: T1, P-gp; test: MDR1-MDCK P-gp Substrate Identification (Example 2, +/- elacridar); settings: MDCK-MDR1, pH 7.4
Method: MDCK epithelial cells stably transfected with the human MDR1 gene (the gene encoding for the efflux protein P-gp) were seeded on a Multiscreen™ plate (Millipore, MA, USA) and formed a confluent monolayer over 4 days prior to the experiment. To verify the MDR1-MDCK cell monolayers were properly formed, aliquots of the cell buffers were analyzed by fluorescence to determine the transport of the impermeable dye Lucifer Yellow. Any deviations from control values are reported.
MDR1-MDCK cells were incubated with these buffers for 2 h, and the receiver side buffer was removed for analysis by LC-MS/MS.
The rate of passage of the test compounds through this cell monolayer barrier from apical to basolateral (A→B) in this bi-directional transport assay was used to determine the apparent permeability coefficient (Papp). Receiver, donor, and dosing solution concentrations were quantified using a calibration curve prepared in transport buffer solution (pH 7.4). Papp is calculated as
where dQ/dt is rate of permeation, C0 is initial concentration of test agent, and A is the area of monolayer (0.11 cm^2). The basolateral to apical (B→A) to apical to basolateral (A→B) apparent permeability coefficient ratio
When RE>2 for a tested compound, the tested compound is a potential substrate for P-gp.
Rantinidine, talinolol, warfarin, and loperamide (±2 μM elacridar) were tested as reference compounds and each was tested at a concentration of 10 μM.

[4] = 144 h, 0 to 1000 nM, Table 5, read-out: IC50 MV4;11-PGP (Compound + DMSO)
[5] = 144 h, 0 to 1000 nM, Table 6, read-out: IC50 MV4;11-PGP (Compound + DMSO)
[6] = posaconazole (1.5 (unit uncertain)), Table 5, read-out: IC50 MV4;11-PGP (Compound + posaconazole)
[7] = valspodar (1 (unit uncertain)), Table 6, read-out: IC50 MV4;11-PGP (Compound + valspodar)
[8] = 144 h, 0 to 1000 nM, Table 5, read-out: IC50 MV4;11-Control (Compound + DMSO)
[9] = 144 h, 0 to 1000 nM, Table 6, read-out: IC50 MV4;11-Control (Compound + DMSO)
[10] = posaconazole (1.5 (unit uncertain)), Table 5, read-out: IC50 MV4;11-Control (Compound + posaconazole)
[11] = valspodar (1 (unit uncertain)), Table 6, read-out: IC50 MV4;11-Control (Compound + valspodar)

## CCN(C(=O)c1cc(F)ccc1Oc1cncnc1N1CC2(CCN(C[C@H]3CC[C@H](NS(=O)(=O)CC)CC3)CC2)C1)C(C)C [SNDX-5613]
MV4;11-PGP cell line; [4]
  IC50: 183 nM
MV4;11-PGP cell line; [5]
  IC50: 173 nM
MV4;11-PGP cell line; [6]
  IC50: 17.1 nM
MV4;11-PGP cell line; [7]
  IC50: 8.15 nM
OCI-AML3-PGP cell line; Table 9, read-out: IC50 OCI-AML3-PGP (Compound + DMSO)
  IC50: > 300 nM
OCI-AML3-PGP cell line; posaconazole (0.75 (unit uncertain)), Table 9, read-out: IC50 OCI-AML3-PGP (Compound + posaconazole)
  IC50: 47.7 nM
OCI-AML3-PGP cell line; valspodar (1 (unit uncertain)), Table 10, read-out: IC50 OCI-AML3-PGP (Compound + valspodar)
  IC50: 31.7 nM
MOLM13-PGP cell line; Table 7, read-out: IC50 MOLM13-PGP (Compound + DMSO)
  IC50: > 900 nM
MOLM13-PGP cell line; posaconazole (1.5 (unit uncertain)), Table 7, read-out: IC50 MOLM13-PGP (Compound + posaconazole)
  IC50: 38.6 nM
MOLM13-PGP cell line; valspodar (1 (unit uncertain)), Table 8, read-out: IC50 MOLM13-PGP (Compound + valspodar)
  IC50: 37.1 nM
MV4;11-Control cell line; [8]
  IC50: 8.55 nM
MV4;11-Control cell line; [9]
  IC50: 8.58 nM
MV4;11-Control cell line; [10]
  IC50: 7.33 nM
MV4;11-Control cell line; [11]
  IC50: 7.61 nM
MOLM13-Control cell line; Table 7, read-out: IC50 MOLM13-Control (Compound + DMSO)
  IC50: 30.1 nM
MOLM13-Control cell line; Table 8, read-out: IC50 MOLM13-Control (compound + DMSO)
  IC50: 28 nM
MOLM13-Control cell line; posaconazole (1.5 (unit uncertain)), Table 7, read-out: IC50 MOLM13-Control (Compound + posaconazole)
  IC50: 24.8 nM
MOLM13-Control cell line; valspodar (1 (unit uncertain)), Table 8, read-out: IC50 MOLM13-Control (Compound + valspodar)
  IC50: 29.5 nM
[1]; Table 9, read-out: IC50 OCI-AML3-Control (Compound + DMSO)
  IC50: 25.7 nM
[1]; Table 10, read-out: IC50 OCI-AML3-Control (Compound + DMSO)
  IC50: 26.4 nM
[1]; posaconazole (0.75 (unit uncertain)), Table 9, read-out: IC50 OCI-AML3-Control (Compound + posaconazole)
  IC50: 38.8 nM
[1]; valspodar (1 (unit uncertain)), Table 10, read-out: IC50 OCI-AML3-Control (Compound + valspodar)
  IC50: 41.5 nM

## C[C@H]1O[C@@H](O[C@H]2[C@@H](O)C[C@H](O[C@H]3[C@@H](O)C[C@H](O[C@H]4CC[C@@]5(C)[C@H](CC[C@@H]6[C@@H]5C[C@@H](O)[C@]5(C)[C@@H](C7=CC(=O)OC7)CC[C@]65O)C4)O[C@@H]3C)O[C@@H]2C)C[C@H](O)[C@@H]1O [Digoxin]
P-gp [2]
  B-to-A Papp (cell batch quality control): 17.6 10^−6 cm/s
  efflux ratio (cell batch quality control): 243
P-gp [2]; dog, read-out: A-to-B Papp (cell batch quality control)
  Papp A→B: 0.07 ×10⁻⁶ cm/s

## CC(C)NCC(O)COc1cccc2ccccc12 (stereo not drawn) [Propanolol]
P-gp [2]; dog, read-out: Papp (cell batch quality control)
  Papp: 15 ×10⁻⁶ cm/s

## CCN(C(=O)c1cc(F)ccc1Oc1nncnc1N1CCC2(C1)CN([C@H](CCCN(C)CCOC)C(C)C)C2)C(C)C [Compound B]
MV4;11-PGP cell line; [4]
  IC50: 108 nM
MV4;11-PGP cell line; [5]
  IC50: 114 nM
MV4;11-PGP cell line; [6]
  IC50: 5.91 nM
MV4;11-PGP cell line; [7]
  IC50: 3.15 nM
MV4;11-Control cell line; [8]
  IC50: 3.32 nM
MV4;11-Control cell line; [9]
  IC50: 4.1 nM
MV4;11-Control cell line; [10]
  IC50: 2.51 nM
MV4;11-Control cell line; [11]
  IC50: 3 nM

## CN(C)C(=O)C(CCN1CCC(O)(c2ccc(Cl)cc2)CC1)(c1ccccc1)c1ccccc1 [Loperamide]
P-gp [3]
  Papp A→B at 2 h: 0.792 ×10⁻⁶ cm/s
  Papp B→A at 2 h: 61.2 ×10⁻⁶ cm/s
